We go through four compounds from patent EP1147095B1, “2, 3, 4, 5-TETRAHYDRO-1H-[1, 4] BENZODIAZEPINE-3-HYDROXAMIC ACIDS AS MATRIX METALLOPROTEINASE INHIBITORS” (Wyeth Holdings Corporation, priority 1999, dated 2000).

What all share (type): biochemical
The target of one experiment is T1, MMP-9 (Homo sapiens, UniProt P14780).
T1 construct: from tissue; host or cells: human neutrophils
Briefly: In Vitro Gelatinase Assay. Particulars: human neutrophil gelatinase B, thiopeptide substrate. As for the experimental part: In Vitro Gelatinase Assay
The assay is based on the cleavage of the thiopeptide substrate ((Ac-Pro-Leu-Gly(2-mercapto-4-methyl-pentanoyl)-Leu-Gly-OEt), available from Bachem Bioscience) by the enzyme gelatinase, releasing the substrate product which reacts colorimetrically with DTNB ((5,5'-dithio-bis(2-nitro-benzoic acid)). This assay is disclosed in Weingarten et al., "Spectrophotometric Assay for Vertebrate Collegenase", Anal. Biochem., 147:437-440, (1985). The enzyme activity is measured by the rate of the color increase.
The thiopeptide substrate was made up fresh as a 20 mM stock in 100% DMSO and the DTNB was dissolved in 100% DMSO as a 100 mM stock and stored in the dark at room temperature. The substrate and the DTNB were diluted together to 1 mM with substrate buffer (50 mM HEPES, pH 7.5, 5 mM CaCl2) before use. The stock of human neutrophil gelatinase B was diluted with assay buffer (50 mM HEPES, pH 7.5, 5 mM CaCl2, 0.02% Brij) to a final concentration of 0.15 nM.
The assay buffer, enzyme, DTNB/substrate (500 µM final concentration) and vehicle or inhibitor were added to a 96 well plate (total reaction volume of 200µl) and the increase in color was monitored spectrophotometrically for 5 minutes at 405 nm on a plate reader.
The increase in OD405 was plotted and the slope of the line was calculated. The slope represents the reaction rate. The linearity of the reaction rate was confirmed (r^2 >0.85) and the mean (x ± sem) of the control rate was calculated and compared for statistical significance (p <0.05) with drug-treated rates using Dunnett's multiple comparison test. Dose-response relationships were generated using multiple doses of drug and IC50 values with 95% CI were estimated using linear regression (IPRED, HTB).

The target in a further experiment is T2, TACE (Homo sapiens, UniProt P78536).
T2 construct: purchased Immunex
T2 sequence (P78536 215-824): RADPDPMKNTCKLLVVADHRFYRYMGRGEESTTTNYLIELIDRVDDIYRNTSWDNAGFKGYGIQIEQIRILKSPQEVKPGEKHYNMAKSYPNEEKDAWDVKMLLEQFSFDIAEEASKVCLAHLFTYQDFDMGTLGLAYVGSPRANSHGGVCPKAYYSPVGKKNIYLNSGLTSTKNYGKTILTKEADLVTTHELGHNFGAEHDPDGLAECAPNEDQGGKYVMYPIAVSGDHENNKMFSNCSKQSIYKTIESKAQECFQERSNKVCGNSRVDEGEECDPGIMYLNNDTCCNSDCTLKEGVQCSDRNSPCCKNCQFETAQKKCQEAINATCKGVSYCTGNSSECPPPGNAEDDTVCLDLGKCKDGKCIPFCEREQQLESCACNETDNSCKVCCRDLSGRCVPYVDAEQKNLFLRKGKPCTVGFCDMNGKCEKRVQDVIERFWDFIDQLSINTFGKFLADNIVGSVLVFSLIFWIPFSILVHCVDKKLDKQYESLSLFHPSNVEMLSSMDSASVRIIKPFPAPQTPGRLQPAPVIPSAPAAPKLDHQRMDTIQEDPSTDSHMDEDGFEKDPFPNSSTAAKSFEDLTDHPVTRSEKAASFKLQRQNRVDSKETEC
The experiment in a line: Procedure for Measuring TACE Inhibition. Particulars: TACE (Immunex), fluorescent peptidyl substrate. As for the experimental part:
The plates were incubated for 10 minutes at room temperature. The reaction was initiated by addition of a fluorescent peptidyl substrate (final concentration 100 µM) to each well with shaking on a shaker for 5 sec. The reaction was read (excitation 340 nm, emission 420 nm) for 10 min. and the increase in fluorescence over time was plotted as a linear line. The slope of the line was calculated and this represents the reaction rate. […] The mean (x±sem) of the control rate was calculated and compared for statistical significance (p<0.05) with drug-treated rates using Dunnett's multiple comparison test.

A further experiment addresses MMP-13 (Homo sapiens, UniProt P45452). The experiment in a line: MMP-13 inhibition (Table 1, no method described).
The target of a further experiment is T3, MMP-1 (Homo sapiens, UniProt P03956).
T3 construct: human recombinant fibroblast collagenase (truncated, mw=18,828)
T3 sequence (P03956 100-269 limits assumed): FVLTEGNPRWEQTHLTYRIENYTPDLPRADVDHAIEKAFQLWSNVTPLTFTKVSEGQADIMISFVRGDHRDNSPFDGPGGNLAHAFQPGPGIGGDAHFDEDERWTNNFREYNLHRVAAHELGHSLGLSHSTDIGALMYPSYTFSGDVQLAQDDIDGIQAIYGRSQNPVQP
The experiment in a line: In Vitro Collagenase Assay. Particulars: human recombinant fibroblast collagenase, fluorogenic peptide substrate. From the text:
In Vitro Collagenase Assay
This assay was based on the cleavage of a peptide substrate ((Dnp-Pro-Cha-Gly-Cys(Me)-His-Ala-Lys(NMa)-NH2), available from Peptide International, Inc.) by collagenase releasing the fluorescent NMa group which was quantitated on the fluorometer as disclosed in Bickett et al., "A High Throughput Fluorogenic Substrate for Interstitial Collagenase (MMP-1) and Gelatinase (MMP-9)", Anal. Biochem., 212:58-64, (1993). Dnp quenches the NMa fluorescence in the intact substrate.
The assay was run in HCBC assay buffer (50 mM HEPES, pH 7.0, 5 mM Ca^+2, 0.02% Brij, 0.5% Cysteine), with human recombinant fibroblast collagenase (truncated, mw=18,828, from Wyeth-Ayerst Research, Radnor, PA). The substrate was dissolved in methanol and stored frozen in 1 mM aliquots. Collagenase was stored frozen in buffer in 25 µM aliquots. In conducting the assay, the substrate was dissolved in HCBC buffer to a final concentration of 10 µM and collagenase to a final concentration of 5 nM. The compounds being examined were dissolved in methanol, DMSO, or HCBC. The methanol and DMSO were diluted in HCBC to < 1.0%. The compounds were added to a 96 well plate containing enzyme and the reaction was started by the addition of substrate.
The reaction was read (excitation 340 nm, emission 444 nm) for 10 min. and the increase in fluorescence over time was plotted as a linear line. The slope of the line was calculated representing the reaction rate. The linearity of the reaction rate was confirmed (r^2 >0.85). The mean (x ± sem) of the control rate was calculated and compared for statistical significance (p <0.05) with drug-treated rates using Dunnett's multiple comparison test. Dose-response relationships were generated using multiple doses of drug and IC50 values with 95% CI were estimated using linear regression.

T1 sequence (P14780 94-707): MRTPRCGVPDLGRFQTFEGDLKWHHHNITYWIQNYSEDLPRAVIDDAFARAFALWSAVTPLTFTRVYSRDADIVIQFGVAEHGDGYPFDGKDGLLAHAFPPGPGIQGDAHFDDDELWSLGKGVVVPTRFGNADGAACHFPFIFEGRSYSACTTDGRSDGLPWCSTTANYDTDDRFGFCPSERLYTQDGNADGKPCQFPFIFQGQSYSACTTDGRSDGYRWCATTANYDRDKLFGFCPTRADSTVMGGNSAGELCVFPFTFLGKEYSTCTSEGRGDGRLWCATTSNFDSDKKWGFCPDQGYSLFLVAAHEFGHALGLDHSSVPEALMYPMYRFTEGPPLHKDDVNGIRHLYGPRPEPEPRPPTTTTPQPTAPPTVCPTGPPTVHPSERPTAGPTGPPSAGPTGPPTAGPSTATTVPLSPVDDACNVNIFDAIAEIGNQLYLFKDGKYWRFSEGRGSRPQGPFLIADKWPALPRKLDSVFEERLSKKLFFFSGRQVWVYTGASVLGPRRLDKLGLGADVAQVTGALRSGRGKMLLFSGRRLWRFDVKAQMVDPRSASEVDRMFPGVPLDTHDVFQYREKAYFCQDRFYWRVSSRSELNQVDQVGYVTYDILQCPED

Take “4-(4-But-2-ynyloxybenzene-sulfonyl)-1-methoxyacetyl-2,3,4,5-tetrahydro-1H-[1,4]benzodiazepine-3-carboxylic acid, hydroxyamide [Example 57]”: the IC50 at MMP-9 is 2 nM; against TACE it was 33 nM; against MMP-13, 7 nM; at MMP-1, 125 nM.
The matching figures for “4-(4-[4-Methoxybut-2-ynyloxy]benzenesulfonyl)-1-(3-pyridinylcarbonyl)-2,3,4,5-tetrahydro-1H-[1,4]benzodiazepine-3-carboxylic acid, hydroxyamide [Example 58]”: 33 nM, 10 nM, 29 nM and 841 nM.
Turning to `CC#CCOc1ccc(S(=O)(=O)N2Cc3ccccc3N(C(C)=O)CC2C(=O)NO)cc1` (centres unmarked) [Example 1, 1-Acetyl-4-(4-but-2-ynyloxbenzenesulfonyl)-2,3,4,5-tetrahydro-1H-[1,4]benzodiazepine-3-carboxylic acid, hydroxyamide], the concentration for half-maximal inhibition (IC50) came to 228 nM against MMP-9, 16 nM at TACE, 77 nM on MMP-13 and 835 nM on MMP-1.
Take `CC#CCOc1ccc(S(=O)(=O)N2Cc3ccccc3N(C(=O)c3ccccc3)CC2C(=O)NO)cc1` (centres unmarked) [Example 3, 1-Benzoyl-4-(4-but-2-ynyloxybenzenesulfonyl)-2,3,4,5-tetrahydro-1H-[1,4]-benzodiazepine-3-carboxylic acid, hydroxyamide]: the IC50 against MMP-9 was 36 nM; on MMP-1, 165 nM.
